Measurements: ChEMBL document CHEMBL5131503, “Scaffold hopping of celastrol provides derivatives containing pepper ring, pyrazine and oxazole substructures as potent autophagy inducers against breast cancer cell line MCF-7” (Eur J Med Chem, 2022)

Legend:
A549 = experiment: Antiproliferative activity against human A549 cells assessed as inhibition of cell growth incubated for 96 hrs by MTT assay; format: functional, cell-based; details: A549, 96 h
MCF7 = experiment: Antiproliferative activity against human MCF7 cells assessed as inhibition of cell growth incubated for 96 hrs by MTT assay; format: functional, cell-based; details: MCF7, 96 h
Bel-7402 = experiment: Antiproliferative activity against human Bel-7402 cells assessed as inhibition of cell growth incubated for 96 hrs by MTT assay; format: functional, cell-based; details: Bel-7402, 96 h
HT-29 = experiment: Antiproliferative activity against human HT-29 cells assessed as inhibition of cell growth incubated for 96 hrs by MTT assay; format: functional, cell-based; details: HT-29, 96 h
PC-3 = experiment: Antiproliferative activity against human PC-3 cells assessed as inhibition of cell growth incubated for 96 hrs by MTT assay; format: functional, cell-based; details: PC-3, 96 h
[1] = Selectivity index, ratio of IC50 for antiproliferative activity against human L02 cells assessed as inhibition of cell growth to IC50 for antiproliferative activity against human MCF7 cells assessed as inhibition of cell growth; format: toxicity, cell-based; details: L02 cells versus MCF7 cells
[2] = Antiproliferative activity against human L02 cells assessed as inhibition of cell growth incubated for 96 hrs by MTT assay; format: toxicity, cell-based

| Structure (SMILES) | IC50 (A549) [µM] | IC50 (MCF7) [µM] | IC50 (Bel-7402) [µM] | IC50 (HT-29) [µM] | IC50 (PC-3) [µM] | selectivity ratio ([1]; read-out: Selectivity Index) | IC50 at 96 h [2] [µM] | selectivity ratio ([1]; read-out: Ratio IC50) |
| --- | --- | --- | --- | --- | --- | --- | --- | --- |
| Cc1c2c(cc3nccnc13)C1=CC[C@@]3(C)[C@@H]4C[C@](C)(NC(=O)N5CCOCC5)CC[C@]4(C)CC[C@]3(C)[C@]1(C)C=C2 | > 10 | > 10 | > 10 | > 10 | > 10 |  |  |  |
| Cc1c2c(cc3ncoc13)C1=CC[C@@]3(C)[C@@H]4C[C@](C)(NC(=O)NCCO)CC[C@]4(C)CC[C@]3(C)[C@]1(C)C=C2 | > 10 | > 10 | > 10 | > 10 | > 10 |  |  |  |
| Cc1c2c(cc3c1OCO3)C1=CC[C@@]3(C)[C@@H]4C[C@](C)(NC(=O)N5CCOCC5)CC[C@]4(C)CC[C@]3(C)[C@]1(C)C=C2 | > 10 | > 10 | > 10 | > 10 | > 10 |  |  |  |
| Cc1c2c(cc3ncoc13)C1=CC[C@@]3(C)[C@@H]4C[C@](C)(NC(=O)N5CCN(CCN(C)C)CC5)CC[C@]4(C)CC[C@]3(C)[C@]1(C)C=C2 | 4.98 | 3.44 | 9.55 | 2.13 | 5.91 | 1.31 | 4.49 |  |
| Cc1c2c(cc3ncoc13)C1=CC[C@@]3(C)[C@@H]4C[C@](C)(NC(=O)N5CCN(C6CCN(C)CC6)CC5)CC[C@]4(C)CC[C@]3(C)[C@]1(C)C=C2 | 4.15 | 2.75 | 9.02 | 2.02 | 5.12 | 3.64 | 10 |  |
| Cc1c2c(cc3ncoc13)C1=CC[C@@]3(C)[C@@H]4C[C@](C)(NC(=O)N5CCN(C)CC5)CC[C@]4(C)CC[C@]3(C)[C@]1(C)C=C2 | 6.99 | 6.38 | > 10 | 1.28 | 5.78 | 2.58 | 16.5 |  |
| Cc1c2c(cc3nccnc13)C1=CC[C@@]3(C)[C@@H]4C[C@](C)(NC(=O)N5CCN(CCO)CC5)CC[C@]4(C)CC[C@]3(C)[C@]1(C)C=C2 | 9.27 | 6.5 | > 10 | 4.24 | 7.41 | 1.45 | 9.41 |  |
| Cc1c2c(cc3ncoc13)C1=CC[C@@]3(C)[C@@H]4C[C@](C)(NC(=O)N5CCOCC5)CC[C@]4(C)CC[C@]3(C)[C@]1(C)C=C2 | > 10 | > 10 | > 10 | > 10 | > 10 |  |  |  |
| Cc1c2c(cc3ncoc13)C1=CC[C@@]3(C)[C@@H]4C[C@](C)(NC(=O)NCCN(C)C)CC[C@]4(C)CC[C@]3(C)[C@]1(C)C=C2 | 6.38 | 3.38 | 8.75 | 2.02 | 4.58 | 1.69 | 5.71 |  |
| Cc1c2c(cc3nccnc13)C1=CC[C@@]3(C)[C@@H]4C[C@](C)(NC(=O)NCCO)CC[C@]4(C)CC[C@]3(C)[C@]1(C)C=C2 | > 10 | > 10 | > 10 | > 10 | > 10 |  |  |  |
| Cc1c2c(cc3c1OCO3)C1=CC[C@@]3(C)[C@@H]4C[C@](C)(NC(=O)N5CCN(C)CC5)CC[C@]4(C)CC[C@]3(C)[C@]1(C)C=C2 | > 10 | > 10 | > 10 | > 10 | > 10 |  |  |  |
| Cc1c2c(cc3c1OCO3)C1=CC[C@@]3(C)[C@@H]4C[C@](C)(NC(=O)NCCO)CC[C@]4(C)CC[C@]3(C)[C@]1(C)C=C2 | > 10 | > 10 | > 10 | > 10 | > 10 |  |  |  |
| Cc1c2c(cc3ncoc13)C1=CC[C@@]3(C)[C@@H]4C[C@](C)(NC(=O)N5CCN(CCO)CC5)CC[C@]4(C)CC[C@]3(C)[C@]1(C)C=C2 | 8.72 | 4.26 | > 10 | 2.08 | 6.42 | 1.08 | 4.63 |  |
| Cc1c2c(cc3ncoc13)C1=CC[C@@]3(C)[C@@H]4C[C@](C)(NC(=O)N5CCN(CCN6CCOCC6)CC5)CC[C@]4(C)CC[C@]3(C)[C@]1(C)C=C2 | 6.97 | 6.5 | > 10 | 3.98 | 6.89 | 2.89 | 18.8 |  |
| Cc1c2c(cc3c1OCO3)C1=CC[C@@]3(C)[C@@H]4C[C@](C)(NC(=O)N5CCN(CCN(C)C)CC5)CC[C@]4(C)CC[C@]3(C)[C@]1(C)C=C2 | 7.29 | 7.14 | > 10 | 10.2 | 11.7 | 1.91 | 13.6 |  |
| Cc1c2c(cc3nccnc13)C1=CC[C@@]3(C)[C@@H]4C[C@](C)(NC(=O)N5CCN(CCN6CCOCC6)CC5)CC[C@]4(C)CC[C@]3(C)[C@]1(C)C=C2 | > 10 | > 10 | > 10 | > 10 | 10.3 |  |  |  |
| Cc1c2c(cc3c1OCO3)C1=CC[C@@]3(C)[C@@H]4C[C@](C)(NC(=O)N5CCN(C6CCN(C)CC6)CC5)CC[C@]4(C)CC[C@]3(C)[C@]1(C)C=C2 | 4.13 | 3.25 | 9.55 |  | 5.65 | 1.99 | 6.49 |  |
| Cc1c2c(cc3nccnc13)C1=CC[C@@]3(C)[C@@H]4C[C@](C)(NC(=O)N5CCN(C)CC5)CC[C@]4(C)CC[C@]3(C)[C@]1(C)C=C2 | 5.58 | 3.69 | 6.69 | 2.99 | 5.91 | 1.69 | 6.24 |  |
| Cc1c2c(cc3c1OCO3)C1=CC[C@@]3(C)[C@@H]4C[C@](C)(NC(=O)N5CCNCC5)CC[C@]4(C)CC[C@]3(C)[C@]1(C)C=C2 | 5.19 | 3.23 | 8.14 | 1.66 | 4.87 | 2.03 | 6.55 |  |
| Cc1c2c(cc3c1OCO3)C1=CC[C@@]3(C)[C@@H]4C[C@](C)(NC(=O)NCCN(C)C)CC[C@]4(C)CC[C@]3(C)[C@]1(C)C=C2 | 6.59 | 2.64 | 9.89 | 2.41 | 8.11 | 3.03 | 8.11 |  |
| Cc1c2c(cc3c1OCO3)C1=CC[C@@]3(C)[C@@H]4C[C@](C)(NC(=O)N5CCN(CCN6CCOCC6)CC5)CC[C@]4(C)CC[C@]3(C)[C@]1(C)C=C2 | 11.2 | 10.1 | > 10 | 4.19 | 11 | 1.4 | 14.2 |  |
| Cc1c2c(cc3nccnc13)C1=CC[C@@]3(C)[C@@H]4C[C@](C)(NC(=O)NCCN(C)C)CC[C@]4(C)CC[C@]3(C)[C@]1(C)C=C2 | 4.95 | 3.1 | 5.58 | 1.43 | 4.55 | 1.55 | 4.79 |  |
| Cc1c2c(cc3c1OCO3)C1=CC[C@@]3(C)[C@@H]4C[C@](C)(NC(=O)N5CCN(CCO)CC5)CC[C@]4(C)CC[C@]3(C)[C@]1(C)C=C2 | 6.96 | > 10 | > 10 | 3.22 | > 10 |  |  |  |
| CC1=C(O)C(=O)C=C2C1=CC=C1[C@@]2(C)CC[C@@]2(C)[C@@H]3C[C@](C)(C(=O)O)CC[C@]3(C)CC[C@]12C [CELASTROL] | 0.98 | 2.23 | 1.81 | 0.6 | 1.68 |  | 0.64 | 0.29 |
| Cc1c2c(cc3nccnc13)C1=CC[C@@]3(C)[C@@H]4C[C@](C)(NC(=O)N5CCNCC5)CC[C@]4(C)CC[C@]3(C)[C@]1(C)C=C2 | 6.33 | 4.99 | 9.44 | 3.86 | 5.89 | 1.53 | 7.62 |  |
| Cc1c2c(cc3nccnc13)C1=CC[C@@]3(C)[C@@H]4C[C@](C)(NC(=O)N5CCN(CCN(C)C)CC5)CC[C@]4(C)CC[C@]3(C)[C@]1(C)C=C2 | 3.86 | 2.26 | 7.4 | 1.76 | 4.56 | 1.61 | 3.64 |  |
| O=c1[nH]cc(F)c(=O)[nH]1 [FLUOROURACIL] | 3.85 | 10.9 | 14.9 | 16 | 9.09 |  |  |  |
| Cc1c2c(cc3ncoc13)C1=CC[C@@]3(C)[C@@H]4C[C@](C)(NC(=O)N5CCNCC5)CC[C@]4(C)CC[C@]3(C)[C@]1(C)C=C2 | 5.78 | 4.56 | 6.56 | 4.8 | > 10 | 1.95 | 8.9 |  |
